From PubChem BioAssay AID1407 (Johns Hopkins Ion Channel Center, 2008)

Biological target: Potassium voltage-gated channel subfamily KQT member 2 (Rattus norvegicus) (UniProt O88943)
Experiment: PubChem AID 1407
Conditions: KCNQ2-expressing cells, rubidium efflux, at 10 µM, stronger effect = higher value

Potassium voltage-gated channel subfamily KQT member 2 (Rattus norvegicus), sequence (O88943 whole entry, looked up): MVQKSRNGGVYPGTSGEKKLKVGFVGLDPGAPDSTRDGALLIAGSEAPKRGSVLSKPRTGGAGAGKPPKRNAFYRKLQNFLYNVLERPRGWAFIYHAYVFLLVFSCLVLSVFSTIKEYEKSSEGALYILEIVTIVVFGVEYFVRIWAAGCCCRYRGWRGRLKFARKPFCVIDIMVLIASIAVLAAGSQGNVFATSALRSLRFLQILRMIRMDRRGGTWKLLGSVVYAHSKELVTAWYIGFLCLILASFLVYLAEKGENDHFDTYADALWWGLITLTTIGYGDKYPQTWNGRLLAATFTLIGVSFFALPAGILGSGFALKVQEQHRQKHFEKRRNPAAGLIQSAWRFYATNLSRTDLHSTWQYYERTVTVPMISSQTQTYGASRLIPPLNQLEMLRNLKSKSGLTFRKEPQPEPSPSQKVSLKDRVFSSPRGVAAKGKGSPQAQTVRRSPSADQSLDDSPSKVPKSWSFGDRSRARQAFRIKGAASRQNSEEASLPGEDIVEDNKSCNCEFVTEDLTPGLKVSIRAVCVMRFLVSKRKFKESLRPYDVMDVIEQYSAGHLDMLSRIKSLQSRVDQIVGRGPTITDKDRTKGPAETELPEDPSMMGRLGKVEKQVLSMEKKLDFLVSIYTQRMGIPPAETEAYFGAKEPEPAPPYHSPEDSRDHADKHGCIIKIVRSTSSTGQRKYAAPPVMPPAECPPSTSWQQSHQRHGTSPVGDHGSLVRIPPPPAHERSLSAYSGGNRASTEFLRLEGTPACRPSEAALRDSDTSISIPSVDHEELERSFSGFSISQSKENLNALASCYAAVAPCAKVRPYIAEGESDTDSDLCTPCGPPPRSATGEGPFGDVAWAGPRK

- activity increase: 23.1%
- efflux (measured here: rubidium efflux percent): 85.5%
Compound: O[N+]1=CC=CCC1=S.On1ccccc1=S.[Zn]
